Patent US12150940B2, “WASp-protecting small molecules, compositions, methods and uses thereof in the treatment of innate and acquired immune-related disorders or conditions” (BAR ILAN UNIVERSITY, priority 2016, dated 2024)

What was measured:
WASp = target: T1, WASp (Homo sapiens, UniProt P42768); assay: WASp ubiquitylation in platelets (immunoprecipitation, anti-ubiquitin blot); assay type: cell-based; conditions: 15 min pre-incubation, vs activated untreated cells
T1 construct: endogenous in cells; host or cells: primary human platelets from healthy donors
T1 sequence (P42768 1-502): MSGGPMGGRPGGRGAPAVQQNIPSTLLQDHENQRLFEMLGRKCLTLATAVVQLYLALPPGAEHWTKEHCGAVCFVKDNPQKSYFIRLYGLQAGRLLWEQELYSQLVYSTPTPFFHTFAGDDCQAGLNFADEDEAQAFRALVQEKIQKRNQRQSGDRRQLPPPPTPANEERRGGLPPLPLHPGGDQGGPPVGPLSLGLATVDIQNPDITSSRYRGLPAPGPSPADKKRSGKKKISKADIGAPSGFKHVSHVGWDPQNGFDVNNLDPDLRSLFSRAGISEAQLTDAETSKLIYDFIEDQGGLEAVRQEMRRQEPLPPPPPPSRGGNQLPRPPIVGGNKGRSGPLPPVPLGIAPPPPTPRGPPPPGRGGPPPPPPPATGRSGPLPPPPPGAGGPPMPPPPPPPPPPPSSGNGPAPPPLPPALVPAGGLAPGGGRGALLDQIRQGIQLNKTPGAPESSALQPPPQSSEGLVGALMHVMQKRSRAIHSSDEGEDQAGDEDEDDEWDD
Experimental: FIGS. 12A and 12B. show freshly-isolated platelets that were either stimulated (+) with TRAP-6 (10 μM) or unstimulated (−) and pre-incubated at 37° C. for 15 min with either DMSO or the indicated WASp-binding SMCs (FIG. 12A—SMC #6; FIG. 12B—SMC #33), followed by lysis. Lysates were subjected to immunoprecipitation with anti-WASp antibody and were analyzed by western blotting with anti-ubiquitin (Ub) and with anti-WASp as precipitation control. Ubiquitylated WASp appears as a smear of bands above the molecular weight (MW) of 65 kDa with a prominent band at ˜81 kDa. Blots are representative of three independent experiments.
Immunoprecipitations and western blotting analysis were performed as previously described (Reicher et al, 2012). Briefly, platelets (2×10^8 cells per sample) were lysed by the addition of an equal volume of 2× lysis buffer (30 mM HEPES pH7.4, 300 mM NaCl, 2 mM phenylmethyl sulfonyl fluoride (PMSF), 2 mM sodium orthovanadate, 2% Triton X-100 and complete protease inhibitor tablets (Roche)). MEG-01 cells (2×10^7 cells per sample) were lysed in 1.25× lysis buffer. Proteasome activity was blocked by addition of MG132 (AdooQ) to platelets and Meg-01 cell medium at final concentration of 10 μM, for 1 h before the cells were harvested. […]

platelets = assay: Platelet intra-cellular calcium concentration (Indo-1-AM); assay type: cell-based, human; conditions: TRAP-6 10 μM, vs solvent
Experimental: Freshly-isolated human platelets were incubated with either control DMSO or the indicated WASp-binding SMCs, specifically, SMC #6 (FIG. 11A), SMC #30 (FIG. 11B), SMC #33 (FIG. 11C) and SMC #34 (FIG. 11D). Platelets were stimulated with TRAP-6 and calcium levels were measured by spectrofluorometer, as described in Experimental procedures. Data are representative of three independent experiments.
Cells were incubated with 5 μM Indo-1-acetoxymethylester (Indo-1-AM, Teflabs) in Tyrode's buffer at 37° C. for 20 min. The cells were washed once, resuspended in Tyrode's buffer containing 10 mM HEPES and maintained at room temperature for 20 min. The cells were incubated at 37° C. for 5 min before measurements and then stimulated with 10 μM TRAP-6. The Ca^2+ influx was measured by spectrofluorometer using the Synergy 4 Microplate Reader (Bio Tek).
However, following receptor-mediated stimulation, platelets dramatically elevate their intra-cellular calcium concentrations, which in turn serve as signaling cues that evoke platelet effector functions, including platelet spreading, adhesion and aggregation (Varga-Sabo et al, 2009). Therefore, the ability of WASp-protecting SMCs to upregulate intra-cellular calcium accumulation in activated platelets was next tested. Freshly-isolated human platelets were incubated with SMC #6, #30, #33 and #34 or with the solvent (negative control). Following incubation, platelets were stimulated with thrombin receptor activator peptide TRAP-6 (10 μM) and calcium levels were measured by spectrofluorometer, using Indo-1-AM-based calcium assay as described in Experimental procedures.

Row | WASp ubiquitylation in active platelets (WASp) | SMILES | intra-cellular calcium concentration in activated platelets (platelets)
1 | considerably decreased | CC(=O)N[C@H]1C[C@@H](c2ccc3c(c2)nnn3C)O[C@@H](c2ccc(Cl)cc2)C1 [SMC #6, N-[(2R,4R,6S)-2-(4-chlorophenyl)-6-(1-methylbenzotriazol-5-yl)oxan-4-yl]acetamide] | dramatically enhanced
2 | considerably decreased | Cc1ccccc1N(CC(=O)NCc1ccccc1)C(=O)CCC(=O)Nc1nccs1 [SMC #33, N′-[2-(benzylamino)-2-oxoethyl]-N′-(2-methylphenyl)-N-(1,3-thiazol-2-yl)butanediamide] | dramatically enhanced
3 |  | CC1CCCC(C)N1C(=O)CSc1nnc(COc2cccc3cccnc23)o1 (centres unmarked) [SMC #34, 1-(2,6-dimethylpiperidin-1-yl)-2-[[5-(quinolin-8-yloxymethyl)-1,3,4-oxadiazol-2-yl]sulfanyl]ethanone] | dramatically enhanced
